Several values for one entry are separate records, joined by “and”; a condition that tells them apart may be missing. Equal entries are not always repeated. Entries after “also recorded” stand apart in the source; their conditions may differ. Where two headings read alike, the source gives them in different places.
Assays:
HEK293 cells = details: 40 μM; for Proliferation of HEK293 (difference in absorbance between 450 and 620 nm), individual wells: WST-1
Description: HEK293 cells were treated with the compound solution at 40 μM or the vehicle dimethyl sulfoxide (DMSO) for 24 hours, with the addition of 5% fetal ox-like serum for recognition of cell feasibility reliant on mitochondrial movement.
Three wells were tested for each treatment. WST-1 reagent was added to each well, and the cells were incubated at 37° C.

[1] = tested on: carrageenan-induced rat paw edema; test: Carrageenan-induced paw edema in rats; format: in vivo; details: 10 mg/kg oral; for Paw size: individual rats; for Paw size, Average: average over all measurements 0-5 hours
Description: Carrageenan was injected subcutaneously into a rodent's paw to generate inflammation due to plasma extravasation, tissue proliferation, plasma protein release, and neutrophilic extravasation, all of which are caused by arachidonic acid digestion. The major phase of inflammation occurs after the carrageenan infusion, and lasts about two hours. This primary stage is associated with the emergence of histamine and serotonin. The next stage frequently is remodeling and edema, which lasts about five hours and begins at about the third hour after administration of carrageenan. The appearance of prostaglandins, proteases, and lysosomes is associated with this second stage of inflammation.
Adult male albino rats weighing 120 g-150 g were divided into five groups of seven rats, allowed free access to food and water at 25° C. and 12 h light/dark cycle. Inflammation was generated in the rats by subplantar injection of 0.2 ml of 1% carrageenan solution in 0.9 percent saline (Sigma-Aldrich, St. Louis, Mo., USA), and injected into the right hind paw. A vernier caliper (SMIEC, Shanghai, China) was used to measure the thickness of the rat paws before and after carrageenan injection to provide a measure of the inflammation caused by carrageenan.
Paw edema was measured at 0 minutes, 30 minutes, and 1, 2, 3, 4, and 5 hours following administration of the medication. Inhibition of edema was indicated by the reduction of increased thickness when comparing the treated and control groups.

rat stomach [2] = test: Ulcerogenic effect on rat stomach (histopathology); format: in vivo; details: for Rat stomach collagen deposition, Masson's Trichrome stain, 10× / Rat stomach collagen deposition, Masson's Trichrome stain / Rat stomach collagen deposition, Masson's Trichrome stain, 40×: 20 mg/kg oral single dose, 24 hours; for Rat stomach collagen deposition, Masson's Trichrome stain: 10× and 40×; for Effect on gastric mucosa, in words: rat stomach
Description: Rats were starved for 24 hours at a normal room temperature of 25° C. with a 12-hour light/dark cycle. The reference drug for comparison was indomethacin. All compounds were administered orally at a single dose of 20 mg/kg. The rats were sacrificed after 24 hours, and their stomachs were retrieved and cleansed with normal saline. Each group's stomachs were examined using binocular magnification to detect the presence of a gastric lesion on the mucosa. The stomachs were then preserved in 10% w/v formalin for histological analysis. Exemplary photomicrographs are included in FIGS. 5A to 5H, and FIGS. 6A to 6H, as discussed further below.
This was accomplished by histopathologic examination of rat stomachs stained by Masson's Trichrome stain. See the photomicrographs of exemplary sections depicted in FIGS. 6A to 6H. Again, after application of Masson's Trichrome, the collagen fibrils are stained blue-green. The double-headed arrow represents collagen fibrils thickness in the submucosa.

rat stomach [3] = test: Ulcerogenic effect on rat stomach (histopathology); format: in vivo; details: 20 mg/kg oral single dose, 24 hours; for Rat stomach gastric layers, H&E: 10×; for Rat stomach inflammatory reaction, H&E: 40×
rat paw = test: Histopathologic examination of carrageenan-treated rat paw (H&E, Masson's trichrome); format: in vivo; details: for Rat paw collagen deposition, Masson's Trichrome stain / Rat paw histopathology, H&E, 10× magnification: 10×; for Rat paw histopathology, H&E: inflammatory reaction and edema: H&E stain
Description: The rat paws were removed and promptly cleaned in saline solution. The specimens were then fixed in 10% natural formalin for two days, and then rinsed with running water overnight. The cleaned samples were then dehydrated in increasing concentrations of ethyl alcohol, beginning with 70% and ending with absolute alcohol.
The samples were cleared by soaking them in xylol for 2 hours. The cleared samples were placed in a covered jar containing 50% paraffin in xylol for 3 hours at 37° C. The samples were then immersed in melting paraffin and maintained at 48° C. for 2 hours before being blocked in hard paraffin and cut into 5-micron sections. Hematoxylin and eosin (H&E) and Masson's trichrome were used to stain the sections. To prepare for histopathological investigation, sections of control rat paws, as well as rat paws treated with carrageenan alone or along with Compound 1, Compound 2, or indomethacin, were mounted with Canada balsam and coated with a coverslip.
The density of the blue-green collagen is consistent with the relative amount of deposited total collagen fiber, which represents collagen synthesis, degradation, and remodeling—some of which is associated with inflammation.

Row | SMILES | Effect on rat paw edema, in words [1] | Paw size ([1]; 30 min) | Paw size ([1]; 1 hour) | Paw size ([1]; 2 hours) | Paw size ([1]; 3 hours) | Paw size ([1]; 4 hours) | Paw size ([1]; 5 hours) | Paw size, Average [1] | Paw size ([1]; zero time) | Proliferation of HEK293 (difference in absorbance between 450 and 620 nm), individual wells (HEK293 cells; 24 hours) | Proliferation of HEK293 (difference in absorbance between 450 and 620 nm), Average (HEK293 cells; 24 hours, WST-1, three wells) | Rat stomach collagen deposition, Masson's Trichrome stain, 10× (rat stomach [2]) | Rat stomach collagen deposition, Masson's Trichrome stain (rat stomach [2]) | Rat stomach collagen deposition, Masson's Trichrome stain, 40× (rat stomach [2]) | Rat stomach gastric layers, H&E (rat stomach [3]) | Rat stomach inflammatory reaction, H&E (rat stomach [3]) | Rat paw collagen deposition, Masson's Trichrome stain (rat paw) | Rat paw histopathology, H&E, 10× magnification (rat paw) | Rat paw histopathology, H&E, 40× magnification (rat paw) | Rat paw histopathology, H&E: inflammatory reaction and edema (rat paw) | also measured
1 | Cc1ccc(-c2cc(C(F)(F)F)nn2-c2ccc(S(N)(=O)=O)cc2)cc1 [Celecoxib, reference compound] | dramatically reduced |  |  |  |  |  |  |  |  |  |  |  |  |  |  |  |  |  |  |  | Cytotoxicity: morphological changes or damages in HEK293 cells (HEK293 cells; human, 24 h): caused changes and damages in HEK293 cells
2 | O=C(O)Cc1ccccc1Nc1c(Cl)cccc1Cl [Diclofenac, reference compound] | significantly reduced rat paw edema | 0.7 cm and 0.65 cm (4×) and 0.6 cm (2×) | 0.55 cm and 0.5 cm (3×) and 0.4 cm (2×) and 0.45 cm | 0.45 cm (4×) and 0.4 cm (3×) | 0.4 cm (4×) and 0.35 cm (2×) and 0.45 cm | 0.35 cm (2×) and 0.4 cm (3×) and 0.45 cm (2×) | 0.55 cm (3×) and 0.6 cm (4×) | 0.518 cm | 0.7 cm (5×) and 0.75 cm (2×) |  |  |  |  |  |  |  |  |  |  |  | Proliferation of HEK293 (difference in absorbance between 450 and 620 nm), Average (HEK293 cells; human, 24 h): 1
3 | Cc1cccc2[nH]c(C3CCCN(C(=O)c4ccccc4NCC(=O)O)C3)nc12 (stereo not shown) [Compound 1, [(2-{[3-(4-methyl-1H-benzimidazol-2-yl)piperidin-1-yl]carbonyl}phenyl)amino] acetic acid] | demonstrated to treat paw swelling; also recorded: significant decreases in rat paw size; also recorded: dramatically reduced | 0.7 cm (3×) and 0.65 cm (4×) | 0.55 cm and 0.5 cm (4×) and 0.45 cm (2×) | 0.5 cm (2×) and 0.45 cm (3×) and 0.4 cm (2×) | 0.4 cm (3×) and 0.35 cm and 0.45 cm (3×) | 0.45 cm (2×) and 0.4 cm (4×) and 0.5 cm | 0.55 cm and 0.6 cm (4×) and 0.65 cm (2×) | 0.542 cm | 0.75 cm (4×) and 0.7 cm (3×) | 1.0653 and 1.0573 and 1.0547 | 1.06 | normal collagen deposition | normal collagen deposition | normal collagen deposition | normal gastric layers | no sign of inflammatory reaction | slight collagen deposition | significant decrease in dermal thickness, inflammatory reaction in the deep dermis (black star), and moderate improvement in edema | slight inflammatory reaction (black star) and slight edema | reduce inflammatory cell infiltration and alleviate edema with lesser collagen deposition; also recorded: marked improvement in the degree of edema and the inflammatory cell infiltration | Effect on gastric mucosa, in words (rat stomach [2]): no effect on gastric mucosa integrity or mucosa collagen content; also recorded: devoid of side effects on gastric mucosa; Rat stomach inflammatory reaction, H&E (rat stomach [3]; listed as compound 1): absence of any inflammatory reaction
4 | CCOC(=O)c1cn(-c2cc(C#N)ccc2O)cc(Oc2ccccc2)c1=O [Compound 2, ethyl-1-(5-cyano-2-hydroxyphenyl)-4-oxo-5-phenoxy-1,4-dihydropyridine-3-carboxylate] | demonstrated to treat paw swelling; also recorded: significant decreases in rat paw size; also recorded: dramatically reduced | 0.7 cm (3×) and 0.65 cm (2×) and 0.55 cm (2×) | 0.55 cm and 0.5 cm (3×) and 0.45 cm (3×) | 0.45 cm (2×) and 0.4 cm (5×) | 0.35 cm and 0.4 cm (5×) and 0.45 cm | 0.4 cm (5×) and 0.45 cm (2×) | 0.55 cm and 0.6 cm (5×) and 0.5 cm | 0.524 cm | 0.75 cm (5×) and 0.7 cm (2×) | 1.0667 and 1.0476 and 1.0648 | 1.06 | slight collagen deposition | slight collagen deposition | slight collagen deposition | normal gastric layers | absence of any inflammatory reaction; also recorded: no sign of inflammatory reaction | slight collagen deposition; also recorded: lowest | substantial decrease in both inflammatory reaction (black star) and edema | slight inflammatory reaction (black star) and slight edema | reduce inflammatory cell infiltration and alleviate edema with lesser collagen deposition; also recorded: substantial decrease in both inflammatory reaction (black star) and a pronounced decline in edema | Effect on gastric mucosa, in words (rat stomach [2]): no effect on gastric mucosa integrity or mucosa collagen content; also recorded: devoid of side effects on gastric mucosa
5 | COc1ccc2c(c1)c(CC(=O)O)c(C)n2C(=O)c1ccc(Cl)cc1 [Indomethacin, reference compound] | significantly reduced rat paw edema; also recorded: dramatically reduced | 0.7 cm and 0.6 cm (4×) and 0.65 cm (2×) | 0.5 cm (2×) and 0.4 cm (4×) and 0.45 cm | 0.45 cm and 0.4 cm (3×) and 0.35 cm (3×) | 0.4 cm (5×) and 0.35 cm (2×) | 0.35 cm (4×) and 0.4 cm (3×) | 0.5 cm and 0.55 cm (4×) and 0.45 cm (2×) | 0.494 cm | 0.7 cm (2×) and 0.75 cm (5×) |  |  | significant collagen deposition | significant collagen deposition | collagen deposition | slight degeneration of gastric layers | absence of any inflammatory reaction; also recorded: no sign of inflammatory reaction | slight collagen deposition | significant decrease in inflammatory reaction (black star) and a moderate decrease in edema | slight inflammatory reaction (black star) and slight edema | significant decrease in the degree of inflammatory reaction (black star), and a moderate decrease in edema | 

Reference: US11478464B1, “Method for treating inflammation” (KING FAISAL UNIVERSITY, priority 2022, dated 2022)
